Data as given in publication PMC12682947, “Identification of New KCNT1‐Epilepsy Drugs by In Silico, Cell, and Drosophila Modeling” (Annals of Neurology, 2025).
Counter-ions that a name gives are not always drawn.

Target: T1, G288S mutant KCNT1 channels (Homo sapiens, UniProt Q5JUK3, G269S)
T1 construct: YFP-6His; expressed in transfected cells; host or cells: HEK293T
T1 sequence (Q5JUK3 1-1235 isoform Q5JUK3-3 G288S): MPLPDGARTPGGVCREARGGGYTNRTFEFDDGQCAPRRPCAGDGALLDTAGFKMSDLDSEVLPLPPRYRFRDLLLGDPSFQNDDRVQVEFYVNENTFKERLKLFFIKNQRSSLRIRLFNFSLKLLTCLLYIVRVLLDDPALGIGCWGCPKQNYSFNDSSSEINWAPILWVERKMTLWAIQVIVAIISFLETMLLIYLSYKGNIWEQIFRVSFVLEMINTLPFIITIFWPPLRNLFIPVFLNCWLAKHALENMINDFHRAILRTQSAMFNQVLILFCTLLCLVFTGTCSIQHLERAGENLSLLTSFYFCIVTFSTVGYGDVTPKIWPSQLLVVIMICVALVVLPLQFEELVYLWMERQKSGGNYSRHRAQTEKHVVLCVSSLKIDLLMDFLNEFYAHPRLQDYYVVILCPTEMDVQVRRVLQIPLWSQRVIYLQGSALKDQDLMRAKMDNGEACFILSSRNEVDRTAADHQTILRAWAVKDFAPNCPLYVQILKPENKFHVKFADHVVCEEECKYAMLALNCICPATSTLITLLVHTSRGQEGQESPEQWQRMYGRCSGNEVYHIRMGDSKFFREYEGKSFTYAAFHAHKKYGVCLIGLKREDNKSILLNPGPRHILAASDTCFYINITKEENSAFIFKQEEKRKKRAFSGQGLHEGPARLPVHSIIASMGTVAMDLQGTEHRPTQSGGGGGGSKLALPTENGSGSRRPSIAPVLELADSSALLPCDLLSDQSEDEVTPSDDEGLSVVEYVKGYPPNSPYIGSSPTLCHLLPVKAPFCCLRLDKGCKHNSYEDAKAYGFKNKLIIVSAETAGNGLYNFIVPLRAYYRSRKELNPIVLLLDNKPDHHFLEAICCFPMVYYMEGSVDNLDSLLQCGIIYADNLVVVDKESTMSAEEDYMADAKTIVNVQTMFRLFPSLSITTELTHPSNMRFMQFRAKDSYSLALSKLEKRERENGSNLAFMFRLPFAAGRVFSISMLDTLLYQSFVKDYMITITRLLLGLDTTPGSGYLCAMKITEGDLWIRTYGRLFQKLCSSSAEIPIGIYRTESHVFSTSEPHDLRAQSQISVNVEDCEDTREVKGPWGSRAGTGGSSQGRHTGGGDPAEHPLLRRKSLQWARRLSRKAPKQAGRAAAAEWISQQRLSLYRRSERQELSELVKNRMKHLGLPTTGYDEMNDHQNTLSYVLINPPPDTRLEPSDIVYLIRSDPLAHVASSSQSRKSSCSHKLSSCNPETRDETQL
Assay: Inside-out patch clamp of HEK293T cells expressing G288S KCNT1
Assay type: cell-based
Conditions: inside-out patches, mean ± SEM
Experimental: The CHO cells were cultured in Dulbecco's modified Eagle's Medium (ThermoFisher, UK) supplemented with 10% (v/v) fetal bovine serum, 50 U/ml penicillin and 0.05 mg/ml streptomycin, and incubated at 37°C in 5% CO2 atmosphere. For whole cell recording of WT/Y796H KCNT1, CHO cells were transiently co‐transfected with concatemeric WT/Y796H and EYFP, as described previously.[29] For electrophysiological experiments, cells were plated onto borosilicate glass cover slips and used 2 to 4 days later. Human embryonic kidney 293T cells (HEK293T) were cultured in the same manner, but with medium supplemented with 2 mM L‐glutamine, and 1% (v/v) nonessential amino acids. For excised inside‐out recording of homomeric WT or mutant YFP‐tagged KCNT1, HEK293T cells plated on glass cover slips were transfected using Attractene Transfection Reagent (Qiagen, Germany) according to the manufacturer's instructions and used 2 to 3 days later.
Inside‐out patch clamp recordings were made at room temperature (23°C) from transiently transfected HEK293T cells, as described previously.[11] The pipette solution contained, in mM, 140 NaCl, 4 KCl, 2 CaCl2, 2 MgCl2, and 10 HEPES adjusted to pH 7.4 with NaOH. […] KCNT1 currents were recorded using 2 voltage protocols, depending on the number of active channels in the patch before drug application. Macroscopic currents (number of active channels > 15) were recorded in response to 100 ms voltage ramps between −120 and 120 mV applied every 2 seconds from a holding potential of −78 mV. […] With a lower number of active channels in the patch (3–15), current traces were recorded in response to 15‐second voltage steps to −20, 0, and 20 mV from a holding potential of −78 mV. Currents recorded at each voltage and each drug concentration were averaged over the duration of the trace and normalized to the average amplitudes of the corresponding current traces in drug‐free solution. […] Single channel data were analyzed using Ana software developed by Dr Michael Pusch (Istituto di Biofisica, Genova, Italy; http://users.ge.ibf.cnr.it/pusch/programs-mik.htm). […]

Compound | IC50
O=C(OCCN1CCN(c2cccc(C(F)(F)F)c2)CC1)c1ccccc1Nc1ccnc2cc(C(F)(F)F)ccc12 [antrafenine] | 0.0133 ± 0.0037 µM
CC(C)c1c(C(=O)Nc2ccccc2)c(-c2ccccc2)c(-c2ccc(F)cc2)n1CC[C@@H](O)C[C@@H](O)CC(=O)O [atorvastatin] | 2.6 ± 1.6 µM
Cc1c(O)cccc1C(=O)N[C@@H](CSc1ccccc1)[C@H](O)CN1C[C@H]2CCCC[C@H]2C[C@H]1C(=O)NC(C)(C)C [nelfinavir mesylate] | 0.0095 ± 0.0018 µM
